These results are taken from patent publication US11220502B2, “Sulfone compounds and derivatives for the treatment and prophylaxis of virus infection” (Hoffmann-La Roche Inc., priority 2018, dated 2022).

A short description of series [1]: Single dose PK study in Male Wister-Han Rats. The format is in vivo. The procedure:
Single dose PK study in Male Wister-Han Rats The single dose PK in Male Wister-Han Rats was performed to assess pharmacokinetic properties of tested compounds. Two groups of animals were dosed via Gavage (POE) of the respective compound. Blood samples (approximately 20 μL) were collected via Jugular vein or an alternate site at 15 min, 30 min, 1 h, 2 h, 4 h, 7 h and 24 h post-dose groups. Blood samples were placed into tubes containing EDTA-K2 anticoagulant and centrifuged at 5000 rpm for 6 min at 4° C. to separate plasma from the samples. After centrifugation, the resulting plasma was transferred to clean tubes for bioanalysis of both prodrug and active form on LC/MS/MS. In the groups that prodrugs were dosed, the concentration of prodrugs in the plasma samples was under the detection limit. The “tested compound” in Table 3 was used as the internal standard for testing the metabolite (active form) of “dose compound” in vivo. The pharmacokinetic parameters were calculated using non-compartmental module of WinNonlin® Professional 6.2. The peak concentration (Cmax) was recorded directly from experimental observations. The area under the plasma concentration-time curve ([…]) was calculated using the linear trapezoidal rule up to the last detectable concentration. Cmax and AUC0-last are two critical PK parameters related to the in vivo efficacy of the tested compound. […]

Series [2] concerns the target T1, human TLR7 (Homo sapiens, UniProt Q9NYK1).
T1 sequence (Q9NYK1 27-1049): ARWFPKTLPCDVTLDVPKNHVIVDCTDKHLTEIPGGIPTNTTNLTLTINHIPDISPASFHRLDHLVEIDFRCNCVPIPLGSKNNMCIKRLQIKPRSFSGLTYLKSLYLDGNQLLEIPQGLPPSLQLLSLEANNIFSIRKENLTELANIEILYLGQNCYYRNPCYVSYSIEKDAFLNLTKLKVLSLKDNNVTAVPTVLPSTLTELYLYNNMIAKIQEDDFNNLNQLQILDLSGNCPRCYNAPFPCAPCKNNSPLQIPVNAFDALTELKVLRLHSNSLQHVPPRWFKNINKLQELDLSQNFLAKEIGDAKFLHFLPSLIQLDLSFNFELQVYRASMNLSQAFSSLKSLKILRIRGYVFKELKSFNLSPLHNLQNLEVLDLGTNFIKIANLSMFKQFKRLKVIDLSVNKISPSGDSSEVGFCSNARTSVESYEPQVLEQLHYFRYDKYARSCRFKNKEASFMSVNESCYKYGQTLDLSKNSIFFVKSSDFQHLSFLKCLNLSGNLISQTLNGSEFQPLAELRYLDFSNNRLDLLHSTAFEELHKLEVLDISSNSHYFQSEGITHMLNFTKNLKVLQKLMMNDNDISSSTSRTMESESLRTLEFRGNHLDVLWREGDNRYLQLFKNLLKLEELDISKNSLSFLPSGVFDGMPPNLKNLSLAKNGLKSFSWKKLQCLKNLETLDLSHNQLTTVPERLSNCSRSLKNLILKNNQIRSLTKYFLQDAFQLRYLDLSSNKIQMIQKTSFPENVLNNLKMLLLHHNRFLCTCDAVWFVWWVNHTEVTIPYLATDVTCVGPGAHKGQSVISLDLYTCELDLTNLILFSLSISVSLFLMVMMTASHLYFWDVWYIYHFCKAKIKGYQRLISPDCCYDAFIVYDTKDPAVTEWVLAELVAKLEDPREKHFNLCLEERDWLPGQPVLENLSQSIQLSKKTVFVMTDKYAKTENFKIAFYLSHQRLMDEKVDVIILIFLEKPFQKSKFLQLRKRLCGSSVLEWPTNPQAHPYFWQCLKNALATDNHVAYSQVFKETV
As to the kind of experiment: HEK293-Blue-hTLR-7 cells assay (SEAP reporter, NF-κB activation). The format is cell-based. As to conditions: for EC50: HEK293-Blue-hTLR-7 cells, 20 hrs incubation, SEAP reporter; for Ratio (EC50(prodrug)/EC50(active form)): calculated ratio of prodrug EC50 to EC50 of corresponding active form. The text has this:
HEK293-Blue-hTLR-7 Cells Assay
A stable HEK293-Blue-hTLR-7 cell line was purchased from InvivoGen (Cat. #: hkb-ht1r7, San Diego, Calif., USA). These cells were designed for studying the stimulation of human TLR7 by monitoring the activation of NF-κB. A SEAP (secreted embryonic alkaline phosphatase) reporter gene was placed under the control of the IFN-β minimal promoter fused to five NF-κB and AP-1-binding sites. The SEAP was induced by activating NF-κB and AP-1 via stimulating HEK-Blue hTLR7 cells with TLR7 ligands. Therefore the reporter expression was regulated by the NF-κB promoter upon stimulation of human TLR7 for 20 hrs. The cell culture supernatant SEAP reporter activity was determined using QUANTI-Blue™ kit (Cat. #: rep-qb1, Invivogen, San Diego, Calif., USA) at a wavelength of 640 nm, a detection medium that turns purple or blue in the presence of alkaline phosphatase.
HEK293-Blue-hTLR7 cells were incubated at a density of 250,000˜450,000 cells/mL in a volume of 180 μL in a 96-well plate in Dulbecco's Modified Eagle's medium (DMEM) containing 4.5 g/L glucose, 50 U/mL penicillin, […], […], 2 mM L-glutamine, 10% (V/V) heat-inactivated fetal bovine serum for 24 hrs. Then the HEK293-Blue-hTLR-7 cells were incubated with addition of 20 μL test compound in a serial dilution in the presence of final DMSO at 1% and perform incubation under 37° C. in a CO2 incubator for 20 hrs. Then 20 μL of the supernatant from each well was incubated with 180 μL Quanti-blue substrate solution at 37° C. for 2 hrs and the absorbance was read at 620˜655 nm using a spectrophotometer. The signalling pathway that TLR7 activation leads to downstream NF-κB activation has been widely accepted, and therefore similar reporter assay was also widely used for evaluating TLR7 agonist (Tsuneyasu Kaisho and Takashi Tanaka, Trends in Immunology, Volume 29, Issue 7, July 2008, […]; Hiroaki Hemmi et al, Nature Immunology 3, 196-200 (2002)).
The Compounds and Examples of the present invention were tested in HEK293-hTLR-7 assay for their TLR7 agonism activity as described herein and results are listed in Table 1. […] The calculated ratio of EC50(prodrug)/EC50(active form) were within the range from 27.7 to about 8233.

The mark [3] stands for this setting: prodrug, read-out: HEK293-hTLR-7 EC50 (Prodrug).

The structures appear in SMILES notation. Where two headings read alike, the source gives them in different places.

In the case of `CCS(=O)(=O)c1nc(N)c2[nH]c(=O)n(Cc3ccc(Cl)cc3)c2n1` [Compound 8a, 6-amino-9-[(4-chlorophenyl)methyl]-2-ethylsulfonyl-7H-purin-8-one], the “Cmax (nM)” value in series [1] (5 mg/kg oral dosing, male Wister-Han rats, plasma, tested compound Compound 8a (active form)) was “Not detected”. In addition, the EC50 in series [2] (corresponding active form, read-out: HEK293-hTLR-7 EC50 (Active form)) came out at 0.083 µM.
As for `CCCN(C)C(=O)n1c(=O)n(Cc2ccc(Cl)cc2)c2nc(S(=O)(=O)CC)nc(N)c21` [Example 8, 6-Amino-9-[(4-chlorophenyl)methyl]-2-ethylsulfonyl-N-methyl-8-oxo-N-propyl-purine-7-carboxamide], the “AUC0-last folds increase comparing with Compound 8a” value in series [1] (oral administration, rats, prodrug versus active form) turned out to be 14.5 folds. The EC50 in series [2] (setting [3]) turned out to be 14.9 µM. The “Ratio (EC50(prodrug)/EC50(active form))” value in series [2] is 179.5.
As to `CCS(=O)(=O)c1nc(N)c2c(n1)n(Cc1ccc(C)cc1)c(=O)n2C(=O)N1CCCC1` [Example 17, 6-Amino-2-ethylsulfonyl-9-(p-tolylmethyl)-7-(pyrrolidine-1-carbonyl)purin-8-one], the EC50 in series [2] (setting [3]) is 67 µM. Also, the “Ratio (EC50(prodrug)/EC50(active form))” value in series [2] was 1030.8.
The matching figures for `CCCN(C)C(=O)n1c(=O)n(Cc2ccc(F)cc2)c2nc(S(=O)(=O)CC)nc(N)c21` [Example 18, 6-Amino-2-ethylsulfonyl-9-[(4-fluorophenyl)methyl]-N-methyl-8-oxo-N-propyl-purine-7-carboxamide]: 2.4 µM and 40.
Turning to `CCN(C)C(=O)n1c(=O)n(Cc2ccc(F)cc2)c2nc(S(=O)(=O)CC)nc(N)c21` [Example 19, 6-Amino-N-ethyl-2-ethylsulfonyl-9-[(4-fluorophenyl)methyl]-N-methyl-8-oxo-purine-7-carboxamide], in series [2] (setting [3]), the EC50 was 494 µM. In addition, in series [2], the “Ratio (EC50(prodrug)/EC50(active form))” value is reported as 8233.
In the same order, the values of `CCCN(C)C(=O)n1c(=O)n(Cc2ccc(OC)cc2)c2nc(S(=O)(=O)CCC)nc(N)c21` [Example 20, 6-Amino-9-[(4-methoxyphenyl)methyl]-N-methyl-8-oxo-N-propyl-2-propylsulfonyl-purine-7-carboxamide] are 32.1 µM and 4012.5.
The matching figures for `CCCS(=O)(=O)c1nc(N)c2c(n1)n(Cc1ccc(OC)cc1)c(=O)n2C(=O)N(C)CC` [Example 21, 6-Amino-N-ethyl-9-[-(4-methoxyphenyl)methyl]-N-methyl-8-oxo-2-propylsulfonyl-purine-7-carboxamide]: 24.2 µM and 3025.
As for `CCCN(C)C(=O)n1c(=O)n(Cc2ccc(Br)cc2)c2nc(S(=O)(=O)CC)nc(N)c21` [Example 22, 6-Amino-9-[(4-bromophenyl)methyl]-2-ethylsulfonyl-N-methyl-N-propyl-8-oxo-purine-7-carboxamide], the EC50 in series [2] (setting [3]) came out at 13.1 µM. Further, the “Ratio (EC50(prodrug)/EC50(active form))” value in series [2] is 570.
Take `CCN(C)C(=O)n1c(=O)n(Cc2ccc(Br)cc2)c2nc(S(=O)(=O)CC)nc(N)c21` [Example 23, 6-Amino-9-[(4-bromophenyl)methyl]-N-ethyl-2-ethylsulfonyl-N-methyl-8-oxo-purine-7-carboxamide]: in series [2] (setting [3]), the EC50 was > 100 µM. Also, the “Ratio (EC50(prodrug)/EC50(active form))” value in series [2] was >4348.
